# Assay results taken from PubChem BioAssay (NCI).
#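 Following 48 hours of exposure in 96-well plates, responses at five concentrations were used to interpolate endpoints linearly. GI50 marks 50% less growth. At the TGI there is no net growth.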
# Key:
# Experiment in all cases: NCI-60 cell line screen, 48 h
# DU-145 prostate = test system: DU-145 prostate
# NCI-H460 lung = test system: NCI-H460 lung
# RXF 393 renal = test system: RXF 393 renal
# SW-620 colon = test system: SW-620 colon
# TK-10 renal = test system: TK-10 renal
# CCRF-CEM leukemia = test system: CCRF-CEM leukemia
# HCT-116 colon = test system: HCT-116 colon
# HL-60(TB) leukemia = test system: HL-60(TB) leukemia
# HS 578T breast = test system: HS 578T breast
# HT29 colon = test system: HT29 colon
# K-562 leukemia = test system: K-562 leukemia
# LOX IMVI melanoma = test system: LOX IMVI melanoma
# MDA-MB-231 breast = test system: MDA-MB-231 breast
# MOLT-4 leukemia = test system: MOLT-4 leukemia
# OVCAR-8 ovarian = test system: OVCAR-8 ovarian
# RPMI-8226 leukemia = test system: RPMI-8226 leukemia
# SR leukemia = test system: SR leukemia
smiles,measurement,setting,value
CC(C)c1ccc(Cn2ccc3c4c(N)nc(NC5CC5)nc4ccc32)cc1,GI50,DU-145 prostate,399 nM
same,TGI,DU-145 prostate,1380 nM
same,GI50,NCI-H460 lung,198 nM
same,TGI,NCI-H460 lung,1070 nM
same,GI50,RXF 393 renal,172 nM
same,TGI,RXF 393 renal,580 nM
same,GI50,SW-620 colon,326 nM
same,TGI,SW-620 colon,1320 nM
same,GI50,TK-10 renal,1230 nM
same,TGI,TK-10 renal,2570 nM
COc1cc(/C=C/C(=O)c2c(C)nc3ccccc3c2/C=C/c2ccccc2)cc(OC)c1OC,GI50,CCRF-CEM leukemia,2090 nM
same,TGI,CCRF-CEM leukemia,> 100000 nM
same,GI50,HCT-116 colon,514 nM
same,TGI,HCT-116 colon,1910 nM
same,GI50,HL-60(TB) leukemia,1630 nM
same,TGI,HL-60(TB) leukemia,6000 nM
same,GI50,HS 578T breast,4200 nM
same,TGI,HS 578T breast,> 100000 nM
same,GI50,HT29 colon,1870 nM
same,TGI,HT29 colon,> 100000 nM
same,GI50,K-562 leukemia,827 nM
same,TGI,K-562 leukemia,> 100000 nM
same,GI50,LOX IMVI melanoma,1420 nM
same,TGI,LOX IMVI melanoma,2780 nM
same,GI50,MDA-MB-231 breast,2150 nM
same,TGI,MDA-MB-231 breast,> 100000 nM
same,GI50,MOLT-4 leukemia,2210 nM
same,TGI,MOLT-4 leukemia,8610 nM
same,GI50,NCI-H460 lung,1860 nM
same,TGI,NCI-H460 lung,4960 nM
same,GI50,OVCAR-8 ovarian,1780 nM
same,TGI,OVCAR-8 ovarian,> 100000 nM
same,GI50,RPMI-8226 leukemia,2210 nM
same,TGI,RPMI-8226 leukemia,> 100000 nM
same,GI50,SR leukemia,1140 nM
same,TGI,SR leukemia,6540 nM
